Data published in patent US20130137682A1, “PEST CONTROL COMPOSITION” (SUMITOMO CHEMICAL COMPANY, LIMITED, priority 2010, published 2013).

Test system: Haemaphysalis longicornis
Experiment: Test Example 3: insecticidal test on Haemaphysalis longicornis by treating glass surface
Type: in vivo
Conditions: 48 h, read-out: Mortality Rate (%)
Protocol: Insecticidal Test on Haemaphysalis longicornis by Treating Glass Surface
Acetone solutions were each prepared for the present hydrazide compounds and the present neonicotinoid compounds. To inner walls of a glass screw tube and lid (NO. 5, manufactured by Maruemu Corporation), 0.2 mL of the acetone solution was uniformly applied. […] The lid is closed tightly, and the number of dead ticks is examined after 2 days.

Q: How did the mortality at 500 mg/m2 turn out when `CCN(Cc1ccc(Cl)nc1)/C(=C/[N+](=O)[O-])NC` [Nitenpyram, nitenpyram] was run?
A: 20%
